Data on 14 molecules can be found in patent US11918592B2, “Inhibitors of cyclin dependent kinase 7 (CDK7)” (Syros Pharmaceuticals, Inc., priority 2018, dated 2024).

Assay [1] addresses CDK7/Cyclin H/MAT1 complex (Homo sapiens, UniProt P50613). The experiment in a line: CDK7 kinase inhibition assay (Caliper/LabChip EZ Reader).
In another assay the test system is HCC70 cells. The experiment in a line: Inhibition of cell proliferation, CyQUANT Direct, HCC70. It is filed as cell-based, human. The note with it: Homo sapiens; HCC70 triple negative breast cancer cells, 72-hour; read-out: HCC 70 proliferation calculated IC50. Here is the method: (§1) HCC70 and MB453 cells are cell lines derived from human triple negative breast cancer. COV318 and COV504 cells are cell lines derived from human ovarian cancer. Representative compounds of the invention were tested at different concentrations (from 4 μM to 126.4 pM; 0.5 log serial dilutions) for their ability to inhibit the proliferation of each of these cell lines. Known CDK inhibitors dinaciclib or N-((1S,3R)-3-((5-chloro-4-(1H-indol-3-yl) pyrimidin-2-yl)amino)cyclohexyl)-5-((E)-4-(dimethylamino)but-2-enamido)picolinamide and triptolide were used as positive controls. Cells were seeded at approximately 2,000 cells/well and grown in ATCC-formulated RPMI-1640 Medium (ATCC 30-2001)+10% FBS. The cells were cultured at 37° C. in a humidified chamber in the presence of 5% CO2. Proliferation assays were conducted over a 72-hour time period. CyQUANT® Direct Cell Proliferation Assay (Life Technologies, Chicago, IL USA) was used to assess the anti-proliferative effects of the compounds following manufacturer's directions and utilizing the reagents supplied with the CyQUANT® Direct Cell kit.

The test system of a further assay is COV504 cells. The experiment in a line: Inhibition of cell proliferation, CyQUANT Direct, COV504. It is filed as cell-based. The note with it: Homo sapiens; COV504 ovarian cancer cells, 72-hour; read-out: COV 504 proliferation calculated IC50. Here is the method: as §1
For another assay, the system named is COV318 cells. The experiment in a line: Inhibition of cell proliferation, CyQUANT Direct, COV318. Format: cell-based. The note with it: Homo sapiens; COV318 ovarian cancer cells, 72-hour; read-out: COV 318 proliferation calculated IC50. Here is the method:
as §1

The next assay has as its system MB453 cells. The experiment in a line: Inhibition of cell proliferation, CyQUANT Direct, MB453. It is filed as cell-based, human. The note with it: Homo sapiens; MB453 triple negative breast cancer cells, 72-hour; read-out: MB 453 proliferation calculated IC50. Here is the method:
as §1

Another assay has as its target CDK2/Cyclin E1 complex (Homo sapiens, UniProt P24941). The experiment in a line: CDK2 kinase inhibition assay (Caliper/LabChip EZ Reader).
The next assay addresses CDK9/Cyclin T1 complex (Homo sapiens, UniProt P50750). The experiment in a line: CDK9 kinase inhibition assay (Caliper/LabChip EZ Reader).
The target in assay [2] is CDK12 (aa686-1082)/Cyclin K complex (Homo sapiens, UniProt Q9NYV4). The experiment in a line: CDK12 kinase inhibition assay (Caliper/LabChip EZ Reader).
Sequence of CDK12 (aa686-1082)/Cyclin K complex (Q9NYV4 686-1082): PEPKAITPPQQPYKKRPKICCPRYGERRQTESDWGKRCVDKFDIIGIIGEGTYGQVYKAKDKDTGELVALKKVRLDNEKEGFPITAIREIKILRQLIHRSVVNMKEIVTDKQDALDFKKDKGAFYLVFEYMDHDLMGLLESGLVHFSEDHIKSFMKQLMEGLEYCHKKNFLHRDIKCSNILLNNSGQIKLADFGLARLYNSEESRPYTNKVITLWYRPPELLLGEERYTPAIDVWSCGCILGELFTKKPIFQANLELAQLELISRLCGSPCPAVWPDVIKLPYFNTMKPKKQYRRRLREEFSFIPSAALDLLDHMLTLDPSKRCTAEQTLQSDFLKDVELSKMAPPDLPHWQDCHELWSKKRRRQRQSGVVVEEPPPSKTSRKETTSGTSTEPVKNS
Sequence of CDK12 (aa686-1082)/Cyclin K complex (O75909 whole entry partner, the tested form may be a part): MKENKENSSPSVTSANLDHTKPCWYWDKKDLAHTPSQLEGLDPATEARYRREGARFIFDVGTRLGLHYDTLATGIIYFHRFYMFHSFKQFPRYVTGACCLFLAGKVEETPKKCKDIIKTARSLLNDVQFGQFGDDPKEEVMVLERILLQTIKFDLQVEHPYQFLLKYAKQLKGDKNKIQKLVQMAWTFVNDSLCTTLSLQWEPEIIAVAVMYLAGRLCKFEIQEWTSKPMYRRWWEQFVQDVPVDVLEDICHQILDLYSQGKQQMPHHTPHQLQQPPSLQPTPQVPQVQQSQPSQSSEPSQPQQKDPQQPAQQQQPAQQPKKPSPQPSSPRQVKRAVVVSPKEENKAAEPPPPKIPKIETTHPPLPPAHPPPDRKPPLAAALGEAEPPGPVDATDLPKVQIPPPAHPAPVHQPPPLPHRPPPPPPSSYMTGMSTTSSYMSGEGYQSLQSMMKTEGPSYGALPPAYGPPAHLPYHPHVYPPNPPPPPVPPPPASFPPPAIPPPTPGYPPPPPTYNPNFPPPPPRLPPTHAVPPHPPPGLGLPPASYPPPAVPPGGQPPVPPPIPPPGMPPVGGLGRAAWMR
Method: (§2) Compounds of the invention were assayed for inhibition of CDK7, CDK9, CDK12, and CDK2 activity at Biortus Biosciences (Jiangyin, Jiangsu Province, P.R. of China) using kinase assays for each CDK developed with a Caliper/LabChip EZ Reader (Perkin Elmer, Waltham, MA).
(§3) Furthermore, the CDK9 inhibition assay used CDK9/Cyclin T1 complex (8 nM) and “5-FAM-CDK9tide” peptide substrate (2 μM, synthesized fluorophore-labeled peptide with the following sequence: 5-FAM-GSRTPMY-NH2 (SEQ ID NO:2) where 5-FAM is defined above and NH2 signifies a C-terminal amide) with 10 mM MgCl2 in the buffer composition listed above. The CDK12 inhibition assay used CDK12 (aa686-1082)/Cyclin K complex (50 nM) and “5-FAM-CDK9tide” (2 μM) as defined above, with 2 mM MgCl2 in the buffer composition above. Additionally, the CDK2 inhibition assay used CDK2/Cyclin E1 complex (0.5 nM) and “5-FAM-CDK7tide” (2 μM) as defined above, with 2 mM MgCl2 in the buffer composition listed above.
(§4) The incubation period at 27° C. for each CDK inhibition assay was chosen such that the fraction of phosphorylated peptide product produced in each assay, relative to the total peptide concentration, was approximately 20% (±5%) for the uninhibited kinase (35 min. for CDK7, 35 min. for CDK2, 3 hr. for CDK12, 15 min. for CDK9).

Each structure is given as a SMILES string. Bounds are passed on as bounds.

Sequence of CDK9/Cyclin T1 complex (P50750 whole entry, the tested form may be a part): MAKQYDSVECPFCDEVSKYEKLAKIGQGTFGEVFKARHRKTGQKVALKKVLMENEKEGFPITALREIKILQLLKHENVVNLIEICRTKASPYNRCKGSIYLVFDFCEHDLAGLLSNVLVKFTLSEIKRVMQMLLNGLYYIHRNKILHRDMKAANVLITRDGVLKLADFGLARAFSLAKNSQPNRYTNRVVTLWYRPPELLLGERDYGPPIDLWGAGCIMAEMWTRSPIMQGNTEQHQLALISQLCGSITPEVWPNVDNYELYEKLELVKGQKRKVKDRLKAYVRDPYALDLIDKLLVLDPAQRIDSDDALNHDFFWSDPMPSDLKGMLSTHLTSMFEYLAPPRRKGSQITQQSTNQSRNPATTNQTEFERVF
Sequence of CDK9/Cyclin T1 complex (O60563 whole entry partner, the tested form may be a part): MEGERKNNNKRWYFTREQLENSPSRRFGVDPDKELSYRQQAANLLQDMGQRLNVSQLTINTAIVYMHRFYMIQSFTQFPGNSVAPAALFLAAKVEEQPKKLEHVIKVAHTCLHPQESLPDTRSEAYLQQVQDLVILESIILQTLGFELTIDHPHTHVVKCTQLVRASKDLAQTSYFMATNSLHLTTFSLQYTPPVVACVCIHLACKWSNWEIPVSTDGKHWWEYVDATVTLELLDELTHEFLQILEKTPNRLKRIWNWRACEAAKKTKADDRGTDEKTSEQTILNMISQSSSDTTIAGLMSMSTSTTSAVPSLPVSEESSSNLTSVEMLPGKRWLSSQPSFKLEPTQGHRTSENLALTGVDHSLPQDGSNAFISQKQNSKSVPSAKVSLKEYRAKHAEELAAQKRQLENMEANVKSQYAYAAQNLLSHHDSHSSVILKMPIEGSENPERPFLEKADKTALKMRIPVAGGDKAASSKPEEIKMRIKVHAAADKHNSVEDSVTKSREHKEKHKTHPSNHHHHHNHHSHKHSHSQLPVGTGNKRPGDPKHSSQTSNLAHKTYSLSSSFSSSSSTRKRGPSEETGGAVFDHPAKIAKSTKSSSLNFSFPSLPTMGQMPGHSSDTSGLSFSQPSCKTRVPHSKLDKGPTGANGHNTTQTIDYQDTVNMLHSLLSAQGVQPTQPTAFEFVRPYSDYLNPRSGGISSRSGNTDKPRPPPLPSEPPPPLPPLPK
Sequence of CDK7/Cyclin H/MAT1 complex (P50613 whole entry): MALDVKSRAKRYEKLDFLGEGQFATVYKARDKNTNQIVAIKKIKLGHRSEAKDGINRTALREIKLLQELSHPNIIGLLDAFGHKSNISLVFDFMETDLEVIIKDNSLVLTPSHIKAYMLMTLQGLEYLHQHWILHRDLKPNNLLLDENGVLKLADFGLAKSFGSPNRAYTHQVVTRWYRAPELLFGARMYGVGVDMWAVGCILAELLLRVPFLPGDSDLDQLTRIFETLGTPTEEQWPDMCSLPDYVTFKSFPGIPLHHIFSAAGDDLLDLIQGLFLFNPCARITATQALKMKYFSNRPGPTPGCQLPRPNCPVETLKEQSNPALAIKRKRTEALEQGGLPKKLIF
Sequence of CDK7/Cyclin H/MAT1 complex (P51946 whole entry partner): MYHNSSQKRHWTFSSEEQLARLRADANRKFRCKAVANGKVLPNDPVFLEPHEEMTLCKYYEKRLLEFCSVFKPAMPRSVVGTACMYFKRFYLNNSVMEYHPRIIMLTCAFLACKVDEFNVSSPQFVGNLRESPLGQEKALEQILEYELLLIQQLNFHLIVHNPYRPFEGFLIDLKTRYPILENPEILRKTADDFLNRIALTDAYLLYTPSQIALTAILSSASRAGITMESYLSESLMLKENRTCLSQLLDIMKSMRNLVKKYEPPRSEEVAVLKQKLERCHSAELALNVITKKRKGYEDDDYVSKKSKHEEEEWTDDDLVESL
Sequence of CDK7/Cyclin H/MAT1 complex (P51948 whole entry partner): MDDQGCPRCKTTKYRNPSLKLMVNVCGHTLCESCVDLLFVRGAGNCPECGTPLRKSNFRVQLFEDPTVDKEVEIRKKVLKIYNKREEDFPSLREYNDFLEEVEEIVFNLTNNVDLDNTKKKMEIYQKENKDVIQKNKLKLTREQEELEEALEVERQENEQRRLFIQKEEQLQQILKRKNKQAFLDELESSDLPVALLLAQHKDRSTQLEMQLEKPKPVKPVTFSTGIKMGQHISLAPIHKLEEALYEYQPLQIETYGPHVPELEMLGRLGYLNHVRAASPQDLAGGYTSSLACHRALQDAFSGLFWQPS
Method for CDK2/Cyclin E1 complex: as §2, §3, §4

As for `Cc1noc(C)c1-c1ccc2c(-c3nc(N[C@H]4CCC[C@@H]4N4CC[C@H](F)C4)ncc3C(F)(F)F)c[nH]c2n1` [Compound 150, 4-[6-(3,5-dimethylisoxazol-4-yl)-1H-pyrrolo[2,3-b]pyridin-3-yl]-N-[(1S,2S)-2-[(3S)-3-fluoropyrrolidin-1-yl]cyclopentyl]-5-(trifluoromethyl)pyrimidin-2-amine], the IC50 in assay [1] was 30 to 100 nM; with HCC70 cells, 500 to 2000 nM; in the assay on COV504 cells, 500 to 2000 nM; in the assay on COV318 cells, over 2000 nM; in the assay with MB453 cells, over 2000 nM; on CDK2/Cyclin E1 complex, over 500 nM. Moreover, the IC50 (on CDK9/Cyclin T1 complex; in assay [2]) was over 500 nM each time.
For `Cc1noc(C)c1-c1ccc2c(-c3nc(N[C@H]4CCC[C@@H]4N4CCCC4)ncc3C(F)(F)F)c[nH]c2c1` [Compound 143, 4-[6-(3,5-dimethylisoxazol-4-yl)-1H-indol-3-yl]-N-[(1S,2S)-2-pyrrolidin-1-ylcyclopentyl]-5-(trifluoromethyl)pyrimidin-2-amine], the IC50 in assay [1] was under 30 nM; with HCC70 cells it was 100 to 500 nM; with COV504 cells, under 100 nM; with COV318 cells it was 500 to 2000 nM; with MB453 cells, under 100 nM; against CDK2/Cyclin E1 complex it was over 500 nM. The IC50 (against CDK9/Cyclin T1 complex; in assay [2]) was over 500 nM each time.
On to `N#Cc1ccc2c(-c3nc(N[C@H]4CC[C@@H]4N4CCCC4)ncc3C(F)(F)F)c[nH]c2c1` [Compound 135, 3-[2-[[(1S,2S)-2-pyrrolidin-1-ylcyclobutyl]-amino]-5-(trifluoromethyl)pyrimidin-4-yl]-1H-indole-6-carbonitrile], for which the IC50 was under 30 nM in assay [1]; over 2000 nM with HCC70 cells; 500 to 2000 nM with COV504 cells; over 2000 nM in the assay with COV318 cells; 100 to 500 nM with MB453 cells; over 500 nM on CDK2/Cyclin E1 complex. Besides, the IC50 (against CDK9/Cyclin T1 complex; in assay [2]) was over 500 nM each time.
With `COCCNC1CCC[C@@H]1Nc1ncc(C(F)(F)F)c(-c2c[nH]c3nc(-c4c(C)noc4C)ccc23)n1` (stereo in doubt) [Compound 152, (1S, 2R)—N1-[4-[6-(3,5-dimethylisoxazol-4-yl)-1H-pyrrolo [2,3-b]pyridin-3-yl]-5-(trifluoromethyl)pyrimidin-2-yl]-N2-(2-methoxyethyl)cyclopentane-1,2-diamine], the IC50 in assay [1] is under 30 nM; in the assay on HCC70 cells, 100 to 500 nM; in the assay with COV504 cells it was 100 to 500 nM; in the assay on COV318 cells, 500 to 2000 nM; in the assay with MB453 cells it was 100 to 500 nM; on CDK2/Cyclin E1 complex, over 500 nM. The IC50 (on CDK9/Cyclin T1 complex; in assay [2]) was over 500 nM in each case.
For `C[C@@H]1C[C@H](Nc2ncc(C(F)(F)F)c(-c3c[nH]c4cc(C#N)ccc34)n2)CN1` [Compound 108], the IC50 in assay [1] is 30 to 100 nM; with HCC70 cells, 500 to 2000 nM; in the assay on COV504 cells, 500 to 2000 nM; in the assay on COV318 cells it was over 2000 nM; in the assay on MB453 cells it was 500 to 2000 nM; against CDK2/Cyclin E1 complex it was over 500 nM. Further, the IC50 (at CDK9/Cyclin T1 complex; in assay [2]) was over 500 nM in each case.
Take `Cc1noc(C)c1-c1ccc2c(-c3nc(N[C@H]4CCC[C@@H]4N4CC(F)C4)ncc3C(F)(F)F)c[nH]c2n1` [Compound 155, 4-[6-(3,5-dimethylisoxazol-4-yl)-1H-pyrrolo [2,3-b]pyridin-3-yl]-N-[(1S, 2S)-2-(3-fluoroazetidin-1-yl)cyclopentyl]-5-(trifluoromethyl) pyrimidin-2-amine]: the IC50 in assay [1] was 100 to 500 nM; in the assay with HCC70 cells, over 2000 nM; with COV504 cells it was over 2000 nM; in the assay with COV318 cells it was over 2000 nM; in the assay on MB453 cells, over 2000 nM; against CDK2/Cyclin E1 complex it was over 500 nM. In addition, the IC50 (against CDK9/Cyclin T1 complex; in assay [2]) was over 500 nM in each case.
Take `CCN[C@H]1CCC[C@@H]1Nc1ncc(C(F)(F)F)c(-c2c[nH]c3cc(C#N)ccc23)n1` [Compound 128, 3-[2-[[(1S,2S)-2-(ethylamino)cyclopentyl]-amino]-5-(trifluoromethyl)pyrimidin-4-yl]-1H-indole-6-carbonitrile]: the IC50 was under 30 nM in assay [1]; under 100 nM in the assay on HCC70 cells; under 100 nM in the assay on COV504 cells; 100 to 500 nM in the assay with COV318 cells; under 100 nM in the assay with MB453 cells; over 500 nM on CDK2/Cyclin E1 complex. The IC50 (against CDK9/Cyclin T1 complex; in assay [2]) was over 500 nM throughout.
Take `N#Cc1ccc2c(-c3nc(N[C@H]4CCC[C@@H]4N4CCOCC4)ncc3C(F)(F)F)c[nH]c2c1` [Compound 121]: the IC50 is 30 to 100 nM in assay [1]; over 2000 nM in the assay on HCC70 cells; over 2000 nM in the assay on COV504 cells; over 2000 nM in the assay on COV318 cells; over 2000 nM in the assay on MB453 cells; over 500 nM against CDK2/Cyclin E1 complex. Moreover, the IC50 (at CDK9/Cyclin T1 complex; in assay [2]) was over 500 nM throughout.
For the molecule `COC1CN([C@H]2CCC[C@@H]2Nc2ncc(C(F)(F)F)c(-c3c[nH]c4nc(-c5c(C)noc5C)ccc34)n2)C1` [Compound 164, 4-[6-(3,5-dimethylisoxazol-4-yl)-1H-pyrrolo[2,3-b]pyridin-3-yl]-N-[(1S,2S)-2-(3-methoxyazetidin-1-yl)cyclopentyl]-5-(trifluoromethyl)pyrimidin-2-amine], the IC50 in assay [1] is under 30 nM; in the assay with HCC70 cells it was 100 to 500 nM; in the assay with COV504 cells, 100 to 500 nM; in the assay on COV318 cells it was over 2000 nM; in the assay on MB453 cells it was 100 to 500 nM; against CDK2/Cyclin E1 complex it was over 500 nM. Also, the IC50 (at CDK9/Cyclin T1 complex; in assay [2]) was over 500 nM each time.
Regarding `CCN[C@H]1CC[C@@H]1Nc1ncc(C(F)(F)F)c(-c2c[nH]c3nc(-c4c(C)noc4C)ccc23)n1` [Compound 160, (1S,2S)—N2-[4-[6-(3,5-dimethylisoxazol-4-yl)-1H-pyrrolo[2,3-b]pyridin-3-yl]-5-(trifluoromethyl)pyrimidin-2-yl]-N1-ethyl-cyclobutane-1,2-diamine], the IC50 was under 30 nM in assay [1]; under 100 nM with HCC70 cells; under 100 nM in the assay on COV504 cells; under 100 nM in the assay on COV318 cells; under 100 nM with MB453 cells; over 500 nM on CDK2/Cyclin E1 complex. The IC50 (on CDK9/Cyclin T1 complex; in assay [2]) was over 500 nM in each case.
`N#Cc1ccc2c(-c3nc(N[C@H]4C[C@H]5CC[C@@H]4N5)ncc3C(F)(F)F)c[nH]c2c1` [Compound 114, 3-[2-[[(1S,2S,4R)-7-azabicyclo[2.2.1]heptan-3-yl]-amino]-5-(trifluoromethyl)pyrimidin-4-yl]-1H-indole-6-carbonitrile]: the IC50 in assay [1] was under 30 nM; with HCC70 cells, 100 to 500 nM; in the assay with COV504 cells it was under 100 nM; in the assay with COV318 cells, 100 to 500 nM; in the assay on MB453 cells, under 100 nM; at CDK2/Cyclin E1 complex it was over 500 nM. Besides, the IC50 (against CDK9/Cyclin T1 complex; in assay [2]) was over 500 nM throughout.
For the molecule `CP(C)(=O)c1c(C#N)ccc2c(-c3nc(N[C@H]4CCC[C@@H]4N)ncc3C(F)(F)F)c[nH]c12` [Compound 161, 3-[2-[[(1S,2S)-2-aminocyclopentyl]amino]-5-(trifluoromethyl)pyrimidin-4-yl]-7-dimethylphosphoryl-1H-indole-6-carbonitrile], the IC50 in assay [1] is under 30 nM; in the assay with HCC70 cells it was under 100 nM; in the assay on COV504 cells, under 100 nM; in the assay with COV318 cells, 100 to 500 nM; with MB453 cells, under 100 nM; against CDK2/Cyclin E1 complex, over 500 nM. The IC50 (against CDK9/Cyclin T1 complex; in assay [2]) was over 500 nM throughout.
For the molecule `Cc1noc(C)c1-c1ccc2c(-c3nc(N[C@H]4CCC[C@@H]4N)ncc3C(F)(F)F)c[nH]c2c1` [Compound 118], the IC50 in assay [1] is under 30 nM; in the assay with HCC70 cells, 100 to 500 nM; with COV504 cells, under 100 nM; in the assay with COV318 cells it was under 100 nM; in the assay with MB453 cells, under 100 nM; at CDK2/Cyclin E1 complex, over 500 nM. Also, the IC50 (at CDK9/Cyclin T1 complex; in assay [2]) was over 500 nM each time.
On to `N#Cc1ccc2c(-c3nc(NC[C@@H]4COCCN4)ncc3C(F)(F)F)c[nH]c2c1` [Compound 102], for which the IC50 in assay [1] was over 500 nM; in the assay with HCC70 cells it was over 2000 nM; in the assay with COV504 cells, over 2000 nM; with COV318 cells, over 2000 nM; in the assay on MB453 cells, over 2000 nM; against CDK2/Cyclin E1 complex it was over 500 nM. The IC50 (against CDK9/Cyclin T1 complex; in assay [2]) was over 500 nM each time.
